Laboratory results taken from patent publication US20260327204A1, “DEGRADERS OF CYCLIN-DEPENDENT KINASE 12/13, COMPOSITIONS, AND USES THEREOF” (ZHEJIANG UNIVERSITY, priority 2023, published 2026).
Like-named read-outs stand apart in the source and are kept apart here.

Assays:
CDK13 [1] = biological target: T1, CDK13 (Homo sapiens, UniProt Q14004); assay: Western blot degradation of CDK13 (Example 2); type: cell-based; design: degradation of CDK12/13 protein in leukemia cells KASUMI-1, MV4-11, and Jurkat; endogenous in cells; conditions: HCT116, colorectal cancer cells
T1 sequence (Q14004 whole entry): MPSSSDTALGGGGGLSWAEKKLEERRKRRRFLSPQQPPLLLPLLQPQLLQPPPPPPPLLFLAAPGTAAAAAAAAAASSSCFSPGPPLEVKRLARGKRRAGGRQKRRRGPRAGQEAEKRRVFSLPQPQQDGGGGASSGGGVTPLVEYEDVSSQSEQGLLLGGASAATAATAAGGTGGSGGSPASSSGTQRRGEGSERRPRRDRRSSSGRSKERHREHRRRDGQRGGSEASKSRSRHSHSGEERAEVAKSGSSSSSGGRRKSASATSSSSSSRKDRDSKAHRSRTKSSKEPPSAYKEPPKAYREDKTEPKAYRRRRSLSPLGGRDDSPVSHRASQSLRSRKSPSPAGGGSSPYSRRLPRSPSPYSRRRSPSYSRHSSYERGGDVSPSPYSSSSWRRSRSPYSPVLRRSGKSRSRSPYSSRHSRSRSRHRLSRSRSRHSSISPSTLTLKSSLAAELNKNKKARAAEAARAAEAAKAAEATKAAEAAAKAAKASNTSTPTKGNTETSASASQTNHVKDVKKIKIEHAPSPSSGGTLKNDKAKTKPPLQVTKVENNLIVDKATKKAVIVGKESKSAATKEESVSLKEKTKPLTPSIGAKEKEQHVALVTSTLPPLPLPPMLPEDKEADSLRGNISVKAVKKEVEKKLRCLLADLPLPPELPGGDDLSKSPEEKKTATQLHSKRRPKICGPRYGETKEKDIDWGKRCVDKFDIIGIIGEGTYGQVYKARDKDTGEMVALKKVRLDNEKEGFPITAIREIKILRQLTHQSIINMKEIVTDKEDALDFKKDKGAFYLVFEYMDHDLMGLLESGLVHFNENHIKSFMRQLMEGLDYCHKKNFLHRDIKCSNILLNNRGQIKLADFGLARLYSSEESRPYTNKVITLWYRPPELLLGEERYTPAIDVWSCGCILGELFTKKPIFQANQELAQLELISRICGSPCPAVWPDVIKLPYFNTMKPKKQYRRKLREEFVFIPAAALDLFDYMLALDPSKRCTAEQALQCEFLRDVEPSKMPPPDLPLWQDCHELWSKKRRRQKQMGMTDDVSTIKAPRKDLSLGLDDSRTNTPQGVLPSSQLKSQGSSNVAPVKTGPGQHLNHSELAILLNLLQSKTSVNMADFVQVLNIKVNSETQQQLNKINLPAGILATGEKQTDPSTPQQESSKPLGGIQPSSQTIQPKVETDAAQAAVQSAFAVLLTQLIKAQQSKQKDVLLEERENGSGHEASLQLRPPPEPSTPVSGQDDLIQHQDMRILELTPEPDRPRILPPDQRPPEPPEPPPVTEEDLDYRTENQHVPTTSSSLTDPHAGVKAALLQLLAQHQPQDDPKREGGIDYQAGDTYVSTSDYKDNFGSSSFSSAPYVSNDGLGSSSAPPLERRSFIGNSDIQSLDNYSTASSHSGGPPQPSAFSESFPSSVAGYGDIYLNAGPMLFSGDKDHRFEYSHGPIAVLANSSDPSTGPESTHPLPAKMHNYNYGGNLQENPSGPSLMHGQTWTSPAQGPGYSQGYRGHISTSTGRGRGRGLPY
T1 sequence (O75909 whole entry partner): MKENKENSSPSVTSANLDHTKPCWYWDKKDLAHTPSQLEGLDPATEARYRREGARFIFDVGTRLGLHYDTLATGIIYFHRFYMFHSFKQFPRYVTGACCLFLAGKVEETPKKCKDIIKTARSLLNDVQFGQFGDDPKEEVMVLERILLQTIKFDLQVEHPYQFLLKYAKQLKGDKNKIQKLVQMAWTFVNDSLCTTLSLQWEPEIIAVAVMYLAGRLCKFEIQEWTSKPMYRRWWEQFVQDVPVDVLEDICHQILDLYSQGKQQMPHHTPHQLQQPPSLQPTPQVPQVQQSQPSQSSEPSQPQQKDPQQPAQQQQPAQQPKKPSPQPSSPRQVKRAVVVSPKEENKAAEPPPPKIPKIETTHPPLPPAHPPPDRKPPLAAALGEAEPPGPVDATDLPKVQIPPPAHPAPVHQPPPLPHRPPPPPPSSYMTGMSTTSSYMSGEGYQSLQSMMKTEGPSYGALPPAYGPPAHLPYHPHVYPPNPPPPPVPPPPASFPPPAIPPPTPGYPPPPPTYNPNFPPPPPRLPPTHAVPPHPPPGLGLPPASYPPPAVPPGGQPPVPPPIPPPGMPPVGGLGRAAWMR

CDK13 [2] = biological target: T1, CDK13; assay: Western blot degradation of CDK13 (Example 2); type: cell-based; design: degradation of CDK12/13 protein in leukemia cells KASUMI-1, MV4-11, and Jurkat; endogenous in cells
[3] = Liver microsome stability, dog; type: in vitro ADME; conditions: liver microsomes
Description: (§1) • Compounds: Ketanserin, Formula 18, Formula 45 • Liver microsomes: Human liver microsomes (purchased from BioreclamationIVT); Dog, mouse, rat, and monkey liver microsomes (purchased from Xenotech)
(§2) Preparation of 500 μM compound solution: Add 5 μL of 10 mM compound solution and 95 μL of DMSO to an EP tube.
(§3) Preparation of solution containing 0.75 mg/mL liver microsomes and 1.5 μM compound: Add 1.5 μL of the 500 μM compound solution, 18.75 μL of the 20 mg/mL liver microsome solution, and 479.75 μL of PBS to an EP tube.
(§4) Preparation of 6 mM NADPH solution: Dissolve 5 mg of NADPH in 1 mL of PBS solution.
(§5) Add 30 μL of the solution containing 0.75 mg/mL liver microsomes and a concentration gradient of the compound to a 96-well plate. Add 15 μL of the 6 mM NADPH solution and 150 μL of a 1:1 acetonitrile:methanol solution containing an internal standard (IS). Vortex and centrifuge at 6,000 rpm for 10 min. 80 μL of the supernatant from each concentration sample is transferred to a 96-well plate containing 140 μL of pure water for LC/MS detection (injection volume of […]). […]
(§6) 80 μL of the supernatant from each well is transferred to a 96-well plate containing 140 μL of pure water for LC/MS detection (injection volume of […]). The compound concentration value is determined by comparing the corresponding mass spectrometry peak area with the standard curve. […]

[4] = Liver microsome stability, human; type: in vitro ADME; conditions: liver microsomes
Description: as §1, §2, §3, §4, §5, §6

[5] = Liver microsome stability, rat; type: in vitro ADME; conditions: liver microsomes
Description: as §1, §2, §3, §4, §5, §6

CDK12 = CDK12 (Homo sapiens, UniProt Q9NYV4); assay: Western blot degradation of CDK12 (Example 2); type: cell-based; design: degradation of CDK12/13 protein in leukemia cells KASUMI-1, MV4-11, and Jurkat; endogenous in cells
CDK12, sequence (Q9NYV4 whole entry): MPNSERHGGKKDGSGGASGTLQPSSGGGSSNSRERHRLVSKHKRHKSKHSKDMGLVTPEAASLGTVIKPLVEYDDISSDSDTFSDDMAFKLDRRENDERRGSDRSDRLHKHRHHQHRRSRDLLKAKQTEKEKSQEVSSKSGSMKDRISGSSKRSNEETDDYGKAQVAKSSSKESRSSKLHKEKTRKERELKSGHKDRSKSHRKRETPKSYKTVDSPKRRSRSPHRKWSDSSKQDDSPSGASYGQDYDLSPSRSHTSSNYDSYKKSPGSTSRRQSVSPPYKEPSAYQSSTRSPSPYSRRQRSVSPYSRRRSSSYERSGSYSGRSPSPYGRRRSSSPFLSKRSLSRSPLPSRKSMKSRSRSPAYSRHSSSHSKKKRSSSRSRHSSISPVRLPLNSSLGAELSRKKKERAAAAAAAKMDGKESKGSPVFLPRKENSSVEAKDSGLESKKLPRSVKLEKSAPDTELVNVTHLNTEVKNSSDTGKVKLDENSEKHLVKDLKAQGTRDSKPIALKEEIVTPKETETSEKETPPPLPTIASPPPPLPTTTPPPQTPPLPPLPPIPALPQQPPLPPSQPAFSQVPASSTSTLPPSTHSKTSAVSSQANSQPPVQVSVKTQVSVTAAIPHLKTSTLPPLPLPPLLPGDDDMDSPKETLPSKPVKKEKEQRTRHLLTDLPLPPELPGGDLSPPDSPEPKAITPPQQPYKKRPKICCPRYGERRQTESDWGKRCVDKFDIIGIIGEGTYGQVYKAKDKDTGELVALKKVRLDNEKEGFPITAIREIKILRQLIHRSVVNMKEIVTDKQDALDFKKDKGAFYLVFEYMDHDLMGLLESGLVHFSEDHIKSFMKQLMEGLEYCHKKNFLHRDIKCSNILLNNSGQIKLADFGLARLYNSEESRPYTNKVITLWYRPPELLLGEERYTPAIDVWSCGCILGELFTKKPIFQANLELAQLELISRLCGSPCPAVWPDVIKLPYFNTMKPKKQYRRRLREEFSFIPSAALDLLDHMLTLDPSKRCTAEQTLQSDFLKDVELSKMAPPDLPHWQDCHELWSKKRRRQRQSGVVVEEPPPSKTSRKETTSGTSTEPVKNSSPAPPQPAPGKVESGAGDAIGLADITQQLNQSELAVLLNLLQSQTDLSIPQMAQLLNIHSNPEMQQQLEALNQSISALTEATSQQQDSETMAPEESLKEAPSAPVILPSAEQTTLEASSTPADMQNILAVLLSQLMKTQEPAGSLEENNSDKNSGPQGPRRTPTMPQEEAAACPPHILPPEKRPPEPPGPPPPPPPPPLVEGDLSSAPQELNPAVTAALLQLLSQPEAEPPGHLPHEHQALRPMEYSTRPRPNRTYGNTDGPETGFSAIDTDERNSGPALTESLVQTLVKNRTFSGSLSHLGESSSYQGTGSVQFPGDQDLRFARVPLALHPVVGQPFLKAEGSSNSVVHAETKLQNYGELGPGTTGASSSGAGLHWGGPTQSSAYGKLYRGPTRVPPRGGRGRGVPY
CDK12, sequence (O75909 whole entry partner): as the sequence (O75909 whole entry partner) above
In short: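 Leukemia lines KASUMI-1, MV4-11, Jurkat, plus MDA-MB-231 for a concentration series, treated at 0.01–3 μM for 3–48 h at 37 °C against DMSO control. Lysates in 4% SDS; CDK12/13 band intensity normalized to β-Actin or GAPDH to give degradation rate.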

[6] = Liver microsome stability, monkey; type: in vitro ADME; conditions: liver microsomes
Description: as §1, §2, §3, §4, §5, §6

**Q.** With Cc1ncsc1-c1ccc([C@H](C)NC(=O)[C@@H]2C[C@@H](O)CN2C(=O)[C@@H](NC(=O)CN2CCN(c3ncc(-c4ccc(N(C(=O)NCc5ccccc5)[C@H]5CC[C@H](Nc6ccc(C#N)cn6)CC5)cc4)cn3)CC2)C(C)(C)C)cc1 [Formula 45] as the molecule, how does the DC50 (CDK13 [1]) read?
**A.** 24 nM

**Q.** And the DC50 (CDK13 [2]; DC50 classes, cell line not given, read-out: CDK13 degradation Activity)?
**A.** < 100 nM

**Q.** And the “degradation of CDK13” value (CDK13 [2]; FIGS. 2-9)?
**A.** has the strongest degradation effect

**Q.** And the DC50 (CDK13 [2]; KASUMI-1, leukemia cells, read-out: CDK13 DC50)?
**A.** 17 nM

**Q.** And the DC50 (CDK13 [2]; MDA-MB-231, breast cancer cells, read-out: CDK13 DC50)?
**A.** 18 nM

**Q.** And the DC50 (CDK13 [2]; MV4-11, leukemia cells, read-out: CDK13 DC50)?
**A.** 21 nM

**Q.** And the half-life [3]?
**A.** > 45 min

**Q.** What about the half-life [4] of the same molecule?
**A.** > 45 min

**Q.** What about the half-life [5] of the same molecule?
**A.** > 45 min

**Q.** What about the DC50 (CDK12; DC50 classes, cell line not given, read-out: CDK12 degradation Activity) of the same molecule?
**A.** < 100 nM

**Q.** What about the “degradation of CDK12” value (CDK12; FIGS. 2-9) of the same molecule?
**A.** has the strongest degradation effect

**Q.** And the DC50 (CDK12; HCT116, colorectal cancer cells, read-out: CDK12 DC50)?
**A.** 34 nM

**Q.** What about the DC50 (CDK12; KASUMI-1, leukemia cells, read-out: CDK12 DC50) of the same molecule?
**A.** 28 nM

**Q.** What about the DC50 (CDK12; MDA-MB-231, breast cancer cells, read-out: CDK12 DC50) of the same molecule?
**A.** 29 nM

**Q.** What about the DC50 (CDK12; MV4-11, leukemia cells, read-out: CDK12 DC50) of the same molecule?
**A.** 30 nM

**Q.** What about the half-life [6] of the same molecule?
**A.** > 45 min
